Assay results as given in patent US5280015A, “2-substituted adenosines and 2-substituted adenosine 5'-carboxamides” (priority 1990, dated 1994).
Several values for one entry are separate records, joined by “and”; a condition that tells them apart may be missing. Identical values can stand only once. Counter-ions that a name gives are not always drawn. Like-named read-outs stand apart in the source and are kept apart here.

How the values were obtained:
[1] = tested on: locomotor activity in NIH mice; test: Locomotor depression by A2 adenosine agonists in mice (Digiscan activity monitor); type: in vivo, mouse; settings: for reversal of APEC locomotor depression by antagonist: antagonist injected before APEC, 8-cyclopentyltheophylline 10 mg/kg; for locomotor depression (% decrease in horizontal activity from vehicle control): mouse, in vivo
[2] = target: A2 adenosine receptors (Bos taurus, UniProt E1BKU0); test: Competitive binding assay in bovine brain using 125I-PAPA-APEC (striatal membranes); design: Bovine striatal membranes; from tissue; host or cells: bovine (calf) striatal membranes
Experimental: (§1) The filters were washed with three×3 ml aliquots of pH 7.2 buffer containing 50 mM HEPES, 10 mM Mg^+2, and 0.05% CHAPS. The filters were placed in polypropylene tubes and counted in a Packard gamma counter.

[3] = tested on: A2-adenosine receptors; test: as above; settings: for Ki (A1)/K1 (A2): ratio of Ki at A1-receptors (rat) versus Ki in the 125I-PAPA-APEC assay (bovine)
Experimental: as §1

[4] = target: T1, A2-adenosine receptors (Rattus norvegicus, UniProt P30543); test: Inhibition of binding of [3H]CGS21680 to A2-adenosine receptors in rat striatal membranes
T1 construct: rat striatal membranes; from tissue; host or cells: rat striatal membranes
Experimental: Stock solutions of representative compounds of the present invention in the millimolar concentration range in dimethylsulfoxide were prepared for the binding assays. […] Protein was determined using the BCA (based on the complex with cuprous ions and bicinchoninic acid) protein assay reagents purchased from Pierce Chemical Co., Rockford, Ill.
The membrane suspension was then centrifuged at 37,000×g for 20 min at 4° C. The pellet was resuspended in buffer containing 2 IU/ml adenosine deaminase, Type VI from calf intestinal mucosa (Sigma, St. Louis, Mo.) to 20 mg/ml original tissue weight and incubated at 37° C. for 30 min. The membrane homogenate was recentrifuged as before, and the pellet was stored frozen at -70° C. until use.
For competitive binding assays using [^3 H]CGS21680, a volume of 1 ml was used in each 13×100 mm glass tube. […] The mixture was incubated with shaking for 90 min at 24° C. The samples were filtered on a Brandel Cell Harvester (Brandel, Gaithersburg, Md.) with Whatman GF/B filters, and washed rapidly twice with 5 ml of ice cold 50 mM Tris, pH 7.4. Each filter disc was added to 4 ml of scintillation fluid, vortexed, and counted after 6 hours.

[5] = target: T2, A1-adenosine receptors (Rattus norvegicus, UniProt P25099); test: Competitive binding assay at A1-adenosine receptors, rat cerebral cortex membranes ([3H]PIA or [3H]CHA)
T2 construct: rat cerebral cortex membranes; from tissue; host or cells: rat cerebral cortex membranes
T2 sequence (P25099 1-326): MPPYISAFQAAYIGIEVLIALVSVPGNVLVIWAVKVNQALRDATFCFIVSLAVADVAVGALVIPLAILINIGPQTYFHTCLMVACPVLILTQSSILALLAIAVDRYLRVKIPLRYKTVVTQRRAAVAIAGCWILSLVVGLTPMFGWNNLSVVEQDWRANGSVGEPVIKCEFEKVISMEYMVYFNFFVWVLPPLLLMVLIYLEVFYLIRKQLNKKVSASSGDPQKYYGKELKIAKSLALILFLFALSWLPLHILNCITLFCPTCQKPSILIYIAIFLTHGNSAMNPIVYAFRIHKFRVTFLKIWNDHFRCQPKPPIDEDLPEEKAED

[6] = bovine striatum; 11, 12 and 14: apparent Ki; read-out: Ki, inhibition of binding of 125I-PAPA-APEC at A2-receptors
[7] = read-out: Ki, inhibition of binding of [3H]CGS21680 at A2-receptors
[8] = rat, [3H]N6-cyclohexyladenosine (footnote c), read-out: Ki, inhibition of binding at A1-receptors using [3H]N6-cyclohexyladenosine
[9] = rat striatum, 11, 12 and 14: apparent Ki, read-out: Ki, inhibition of binding of [3H]CGS21680 at A2-receptors
[10] = rat, [3H]PIA, read-out: Ki, inhibition of binding of [3H]PIA at A1-receptors

Sequence of A2 adenosine receptors (E1BKU0 1-401): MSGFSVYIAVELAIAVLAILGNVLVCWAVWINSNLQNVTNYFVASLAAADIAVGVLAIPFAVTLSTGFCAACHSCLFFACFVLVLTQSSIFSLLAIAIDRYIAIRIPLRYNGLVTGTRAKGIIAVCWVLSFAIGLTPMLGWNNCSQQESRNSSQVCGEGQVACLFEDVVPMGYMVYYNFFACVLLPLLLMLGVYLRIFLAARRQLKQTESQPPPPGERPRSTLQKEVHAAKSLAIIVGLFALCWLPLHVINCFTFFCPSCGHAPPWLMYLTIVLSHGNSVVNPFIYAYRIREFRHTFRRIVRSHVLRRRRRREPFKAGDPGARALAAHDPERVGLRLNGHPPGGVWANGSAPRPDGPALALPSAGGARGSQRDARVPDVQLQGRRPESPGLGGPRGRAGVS
T1 sequence (P30543 whole entry): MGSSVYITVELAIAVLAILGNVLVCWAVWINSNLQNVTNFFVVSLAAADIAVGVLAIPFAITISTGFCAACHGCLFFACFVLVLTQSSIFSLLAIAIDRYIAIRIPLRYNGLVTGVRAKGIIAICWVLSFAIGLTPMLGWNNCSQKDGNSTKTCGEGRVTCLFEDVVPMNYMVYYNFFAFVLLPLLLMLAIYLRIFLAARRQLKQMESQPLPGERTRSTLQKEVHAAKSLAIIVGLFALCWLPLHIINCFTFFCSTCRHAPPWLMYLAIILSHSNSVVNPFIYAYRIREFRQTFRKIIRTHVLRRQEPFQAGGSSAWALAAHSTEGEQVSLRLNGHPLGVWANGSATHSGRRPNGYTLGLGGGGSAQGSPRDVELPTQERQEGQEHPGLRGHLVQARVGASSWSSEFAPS

CCCn1c(=O)c2[nH]c(C3CCCC3)nc2n(CCC)c1=S [8-cyclopentyl-1,3-dipropyl-2-thioxanthine]
reversal of APEC locomotor depression by antagonist ([1]; mice): not

Cn1c(=O)c2[nH]c(C3CCCC3)nc2n(C)c1=O [8-cyclopentyltheophylline]
reversal of APEC locomotor depression by antagonist ([1]; mice): not

OC[C@H]1O[C@@H](n2cnc3c(NC4CCCCC4)ncnc32)[C@H](O)[C@@H]1O [CHA, N^6 -cyclohexyladenosine]
ED50 ([1]; Mus musculus, ip, mice, i.p., from dose response curves, read-out: ED50, locomotor depression): 0.06 mg/kg | reversal of agonist-elicited locomotor depression by A1-selective antagonists ([1]; mice, agonist with A1-selective antagonists): reversed by A1 -selective antagonists

CCNC(=O)[C@H]1O[C@@H](n2cnc3c(N)nc(NCCc4ccc(CCC(=O)NCCNC(=O)CCc5ccc(O)cc5)cc4)nc32)[C@H](O)[C@@H]1O [Compound 4]
Ki [2, 6]: 13.2 ± 1.5 nM | Ki (A1)/K1 (A2) [3]: 72 | locomotor depression (% decrease in horizontal activity from vehicle control) ([1]; ip): 44±7% | Ki [4, 7]: 13 ± 4 nM | Ki [5, 8]: 950 ± 100 nM

CCNC(=O)[C@H]1O[C@@H](n2cnc3c(N)nc(NCCc4ccc(CCC(=O)NCCNC(=O)Cc5cccs5)cc4)nc32)[C@H](O)[C@@H]1O [Compound 5]
Ki [2, 6]: 21.3 ± 7.9 nM | Ki (A1)/K1 (A2) [3]: 66 | locomotor depression (% decrease in horizontal activity from vehicle control) ([1]; ip): 49±9% | Ki [4, 7]: 15 ± 1 nM | Ki [5, 8]: 1400 ± 100 nM

CCNC(=O)[C@H]1O[C@@H](n2cnc3c(N)nc(NCCc4ccc(CCC(=O)NCCNC(=O)c5cccc(N)c5)cc4)nc32)[C@H](O)[C@@H]1O [Compound 8]
potency in displacing 125I-PAPA-APEC binding ([2]; bovine brain A2; relative to compounds with Ki less than 10 nM): less potent | Ki [2, 6]: 43.6 ± 5.2 nM | Ki (A1)/K1 (A2) [3]: 31 | Ki [4, 9]: 16.5 ± 2.8 nM | Ki [5, 10]: 1340 ± 28 nM

CCNC(=O)[C@H]1O[C@@H](n2cnc3c(N)nc(NCCc4ccc(CCC(=O)NCCNC(=O)c5cccc(NC(=O)OCc6ccccc6)c5)cc4)nc32)[C@H](O)[C@@H]1O [Compound 9]
Ki [2, 6]: < 10 nM and 8.7 nM | Ki (A1)/K1 (A2) [3]: 78 | Ki [4, 7]: 12 ± 2 nM | Ki [5, 8]: 680 ± 110 nM

CCNC(=O)[C@H]1O[C@@H](n2cnc3c(N)nc(NCCc4ccc(CCC(=O)NCCNC(=O)CCCC[C@@H]5SC[C@@H]6NC(=O)N[C@@H]65)cc4)nc32)[C@H](O)[C@@H]1O [Compound 10]
Ki [2, 6]: 14.3 ± 3.3 nM | Ki (A1)/K1 (A2) [3]: > 350 | Ki [4, 7]: 55 ± 30 nM | Ki [5, 8]: > 5000 nM

CCNC(=O)[C@H]1O[C@@H](n2cnc3c(N)nc(NCCc4ccc(CCC(=O)NCCNC(=S)Nc5ccc(N=C=S)cc5)cc4)nc32)[C@H](O)[C@@H]1O [Compound 12]
Ki ([2]; Ki, inhibition of binding of 125I-PAPA-APEC at A2-receptors, bovine striatum; 11, 12 and 14: apparent Ki): < 10 nM and 7.1 nM | Ki (A1)/K1 (A2) [3]: 39 | Ki [4]: 35 ± 10 nM | Ki [5]: 276 ± 75 nM

CCNC(=O)[C@H]1O[C@@H](n2cnc3c(N)nc(NCCc4ccc(CCC(=O)NCCNC(=S)Nc5ccc(S(=O)(=O)O)cc5)cc4)nc32)[C@H](O)[C@@H]1O [Compound 13, 2-[4-[2-[2-[4-(Sulfophenylthioureidyl)]-ethylaminocarbonyl]ethyl]phenyl]ethylamino]-5'-N-ethylcarboxamidoadenosine sodium salt]
Ki [2, 6]: 10.9 ± 2.3 nM | selectivity for A2 receptors ([3]; A2 versus A1): more than 200 fold | Ki (A1)/K1 (A2) [3]: 347 | locomotor depression (% decrease in horizontal activity from vehicle control) ([1]; ip): 41±5% | Ki [4, 9]: 26 ± 10 nM | Ki [5, 10]: 3780 ± 800 nM

CCNC(=O)[C@H]1O[C@@H](n2cnc3c(N)nc(NCCc4ccc(CCC(=O)NCCNC(=O)CBr)cc4)nc32)[C@H](O)[C@@H]1O [Compound 14]
Ki [2, 6]: 15.8 ± 4.8 nM | Ki (A1)/K1 (A2) [3]: 125 | Ki [4, 7]: 69.7 nM | Ki [5, 10]: 1980 ± 102 nM

CCNC(=O)[C@H]1O[C@@H](n2cnc3c(N)nc(NCCc4ccc(CCC(=O)NCCNC(=S)NC5CC(C)(C)N([O])C(C)(C)C5)cc4)nc32)[C@H](O)[C@@H]1O [Compound 15]
Ki ([2]; read-out: Ki, inhibition of binding of 125I-PAPA-APEC at A2-receptors; bovine striatum; 11, 12 and 14: apparent Ki): 14.8 ± 3.6 nM | Ki ([4]; read-out: Ki, inhibition of binding of [3H]CGS21680 at A2-receptors, rat striatum, 11, 12 and 14: apparent Ki): 27 ± 3 nM | Ki ([5]; read-out: Ki, inhibition of binding at A1-receptors using [3H]N6-cyclohexyladenosine, rat, [3H]N6-cyclohexyladenosine (footnote c)): 177 ± 38 nM

CCNC(=O)[C@H]1O[C@@H](n2cnc3c(N)nc(NCCc4ccc(CCC(=O)NCCNc5ccc([N+](=O)[O-])c6nonc56)cc4)nc32)[C@H](O)[C@@H]1O [Compound 17]
Ki [2, 6]: 31.6 ± 1.3 nM | affinity at A2-adenosine receptors ([3]; fluorescent probes, derivatives in general): high affinity

Cn1c(=O)c2[nH]cnc2n(C)c1=O [theophylline]
total distance traveled restored, % of control ([1]; antagonist 10 mg/kg, at the ED50 dose of APEC, mice): 95±12 % of control | reversal of APEC locomotor depression by antagonist ([1]; mice): reversible by theophylline
